Measured values reported in ChEMBL document CHEMBL3526121, “Pharmacokinetics, bioavailability, tissue distribution, excretion, and metabolite identification of methoxyflavones in Kaempferia parviflora extract in rats” (Drug Metab Dispos, 2012).
Blank lines part the entries; values can stand above or below the molecule they belong to.

Experiments:
[1] = test system: Kidney; test: AUC (0.083 to 4 hrs) in Wistar rat kidney at 750 mg/kg, po by LC-MS/MS analysis; format: ADME, organism-based; design: time 0.083-4 hr, dose 750 mg/kg, route oral; conditions: in vivo
[2] = test system: Lung; test: AUC (0.083 to 4 hrs) in Wistar rat lung at 750 mg/kg, po by LC-MS/MS analysis; format: ADME, organism-based; design: time upper 4 hr, time lower 0.083 hr, dose 750 mg/kg, route oral; conditions: in vivo
[3] = Cmax in Wistar rat testes at 750 mg/kg, po by LC-MS/MS analysis; format: ADME, organism-based, Testis; design: dose 750 mg/kg, route oral
[4] = Oral bioavailability in Wistar rat at 250 mg/kg by HPLC analysis; format: ADME, organism-based; conditions: in vivo
[5] = Tmax in Wistar rat liver at 750 mg/kg, po by LC-MS/MS analysis; format: ADME, organism-based; design: dose 750 mg/kg, route oral
[6] = Cmax in Wistar rat liver at 750 mg/kg, po by LC-MS/MS analysis; format: ADME, organism-based; design: dose 750 mg/kg, route oral
[7] = Half life in Wistar rat at 250 mg/kg, iv by HPLC analysis; format: ADME, organism-based; design: dose 250 mg/kg, route intravenous; conditions: Wistar, in vivo
[8] = Drug metabolism in Wistar rat assessed as excretion of 5,7-dihydroxy-2-phenyl-4H-chromen-4-one in urine/feces at 750 mg/kg, po by LC-MS and LC-MS/MS analysis; format: ADME, organism-based; design: dose 750 mg/kg, route oral; conditions: in vivo
[9] = test system: Liver; test: AUC (0.083 to 4 hrs) in Wistar rat liver at 750 mg/kg, po by LC-MS/MS analysis; format: ADME, organism-based; design: time 0.083-4 hr, dose 750 mg/kg, route oral; conditions: in vivo
[10] = Drug excretion in Wistar rat urine at 750 mg/kg, po after 18 to 24 hrs by HPLC-UV analysis; format: ADME, organism-based; design: dose 750 mg/kg, route oral; conditions: in vivo
[11] = Elimination rate constant in Wistar rat at 250 mg/kg, iv by HPLC analysis; format: ADME, organism-based; design: dose 250 mg/kg, route intravenous; conditions: Wistar, in vivo, read-out: Ke (converted)
[12] = Drug excretion in Wistar rat feces at 750 mg/kg, po after up to 72 hrs by HPLC-UV analysis; format: ADME, organism-based; design: dose 750 mg/kg, route oral; conditions: faeces, read-out: Drug excretion
[13] = AUC in Wistar rat at 250 mg/kg, iv by HPLC analysis; format: ADME, organism-based; design: dose 250 mg/kg, route intravenous; conditions: plasma
[14] = Clearance in Wistar rat at 250 mg/kg, iv by HPLC analysis; format: ADME, organism-based; design: dose 250 mg/kg, route intravenous; conditions: in vivo
[15] = Drug excretion in Wistar rat urine at 750 mg/kg, po after 12 hrs by HPLC-UV analysis; format: ADME, organism-based; design: dose 750 mg/kg, route oral; conditions: in vivo
[16] = Cmax in Wistar rat kidney at 750 mg/kg, po by LC-MS/MS analysis; format: ADME, organism-based; design: dose 750 mg/kg, route oral
[17] = Half life in Wistar rat at 250 mg/kg, po by HPLC analysis; format: ADME, organism-based; design: dose 250 mg/kg, route oral; conditions: in vivo
[18] = test system: Rattus norvegicus; test: Volume of distribution in Wistar rat at 250 mg/kg, po by HPLC analysis; format: ADME, organism-based; design: dose 250 mg/kg, route oral; conditions: in vivo
[19] = Drug metabolism in Wistar rat assessed as excretion of 2-phenyl-5-((2S,3R,4S,5S,6R)-3,4,5-trihydroxy-6-(hydroxymethyl)tetrahydro-2H-pyran-2-yloxy)-4H-chromen-4-one in urine at 750 mg/kg, po by LC-MS and LC-MS/MS analysis; format: ADME, organism-based; design: dose 750 mg/kg, route oral; conditions: in vivo
[20] = Elimination rate constant in Wistar rat at 250 mg/kg, po by HPLC analysis; format: ADME, organism-based; design: dose 250 mg/kg, route oral; conditions: in vivo, read-out: Ke (converted)
[21] = Tmax in Wistar rat brain at 750 mg/kg, po by LC-MS/MS analysis; format: ADME, organism-based; design: dose 750 mg/kg, route oral
[22] = Tmax in Wistar rat at 250 mg/kg, po by HPLC analysis; format: ADME, organism-based; design: dose 250 mg/kg, route oral; conditions: in vivo
[23] = Tmax in Wistar rat kidney at 750 mg/kg, po by LC-MS/MS analysis; format: ADME, organism-based; design: dose 750 mg/kg, route oral
[24] = Cmax in Wistar rat at 250 mg/kg, po by HPLC analysis; format: ADME, organism-based; design: dose 250 mg/kg, route oral; conditions: in vivo
[25] = AUC in Wistar rat at 250 mg/kg, po by HPLC analysis; format: ADME, organism-based; design: dose 250 mg/kg, route oral; conditions: plasma
[26] = Drug excretion in Wistar rat urine at 750 mg/kg, po after up to 72 hrs by HPLC-UV analysis; format: ADME, organism-based; design: dose 750 mg/kg, route oral; conditions: read-out: Drug excretion
[27] = Cmax in Wistar rat lung at 750 mg/kg, po by LC-MS/MS analysis; format: ADME, organism-based; design: dose 750 mg/kg, route oral
[28] = test system: Brain; test: AUC (0.083 to 4 hrs) in Wistar rat brain at 750 mg/kg, po by LC-MS/MS analysis; format: ADME, organism-based; design: time 0.083-4 hr, dose 750 mg/kg, route oral; conditions: in vivo
[29] = Cmax in Wistar rat brain at 750 mg/kg, po by LC-MS/MS analysis; format: ADME, organism-based; design: dose 750 mg/kg, route oral
[30] = AUC (0.083 to 4 hrs) in Wistar rat testes at 750 mg/kg, po by LC-MS/MS analysis; format: ADME, organism-based, Testis; design: time 0.083-4 hr, dose 750 mg/kg, route oral; conditions: in vivo
[31] = Tmax in Wistar rat lung at 750 mg/kg, po by LC-MS/MS analysis; format: ADME, organism-based; design: dose 750 mg/kg, route oral
[32] = Drug metabolism in Wistar rat assessed as excretion of 7-methoxy-4-oxo-2-phenyl-4H-chromen-5-yl hydrogen sulfate in urine at 750 mg/kg, po by LC-MS and LC-MS/MS analysis; format: ADME, organism-based; design: dose 750 mg/kg, route oral; conditions: in vivo
[33] = Clearance in Wistar rat at 250 mg/kg, po by HPLC analysis; format: ADME, organism-based; design: dose 250 mg/kg, route oral; conditions: in vivo
[34] = test system: Rattus norvegicus; test: Absorption rate constant in Wistar rat at 250 mg/kg, po by HPLC analysis; format: ADME, organism-based; design: dose 250 mg/kg, route oral; conditions: in vivo
[35] = Drug excretion in Wistar rat feces at 750 mg/kg, po after 12 to 18 hrs by HPLC-UV analysis; format: ADME, organism-based; design: dose 750 mg/kg, route oral; conditions: in vivo
[36] = Drug excretion in Wistar rat urine at 750 mg/kg, po after 72 hrs by HPLC-UV analysis; format: ADME, organism-based; design: dose 750 mg/kg, route oral; conditions: in vivo
[37] = Tmax in Wistar rat testes at 750 mg/kg, po by LC-MS/MS analysis; format: ADME, organism-based, Testis; design: dose 750 mg/kg, route oral
[38] = Drug excretion in Wistar rat feces at 750 mg/kg, po after 12 hrs by HPLC-UV analysis; format: ADME, organism-based; design: dose 750 mg/kg, route oral; conditions: in vivo
[39] = Drug metabolism in Wistar rat urine/feces treated with 750 mg/kg, po of 5,7-dimethoxyflavone by LC-MS and LC-MS/MS analysis; format: ADME, organism-based; design: dose 750 mg/kg, route oral; conditions: in vivo
[40] = Drug metabolism in Wistar rat urine/feces treated with 750 mg/kg, po of 5,7,4'-trimethoxyflavone by LC-MS and LC-MS/MS analysis; format: ADME, organism-based; design: dose 750 mg/kg, route oral; conditions: in vivo
[41] = Drug metabolism in Wistar rat urine/feces treated with 750 mg/kg, po of 3,5,7,3',4'-pentamethoxyflavone by LC-MS and LC-MS/MS analysis; format: ADME, organism-based; design: dose 750 mg/kg, route oral; conditions: in vivo

- AUC [1]: 2.51 µg·h/g
- AUC [2]: 2.17 µg·h/g
- Cmax [3]: 910 ng/g
- bioavailability [4]: 2.1%
- Tmax [5]: 2.57 h
- Cmax [6]: 3850 ng/g
- half-life [7]: 3.75 h
- Drug metabolism [8]: metabolite_detected
- AUC [9]: 8.6 µg·h/g
- Drug excretion [10]: Active
- k el [11]: 8.89e-05 s⁻¹
- dose excreted at 72 h [12]: 3.1%
- AUC [13]: 233 µg·h/mL
- clearance [14]: 0.133 mL/min
- Drug excretion [15]: Active
- Cmax [16]: 1330 ng/g
- half-life [17]: 5.85 h
- Vd [18]: 2957.53 mL
- Drug metabolism [19]: metabolite_detected
- k el [20]: 3.61e-05 s⁻¹
- Tmax [21]: 3.14 h
- Tmax [22]: 0.76 h
- Tmax [23]: 3.43 h
- Cmax [24]: 780 ng/mL
- AUC [25]: 7.01 µg·h/mL
- dose excreted at 72 h [26]: 0.96%
- Cmax [27]: 2000 ng/g
- AUC [28]: 1.91 µg·h/g
- Cmax [29]: 960 ng/g
- AUC [30]: 1.9 µg·h/g
- Tmax [31]: 1.2 h
- Drug metabolism [32]: metabolite_detected
- CL/F [33]: 6.12 mL/min
- ka [34]: 8.69 h⁻¹
- Drug excretion [35]: Active
- Drug excretion [36]: metabolite_not_detected
- Tmax [37]: 2.86 h
- Drug excretion [38]: Active
SMILES: COc1cc(OC)c2c(=O)cc(-c3ccccc3)oc2c1 [CHRYSIN DIMETHYL ETHER]

- Drug metabolism [39]: metabolite_detected
SMILES: O=c1cc(-c2ccccc2)oc2cc(O)cc(O)c12 [CHRYSIN]

- Drug metabolism [40]: metabolite_detected
SMILES: COc1cc(O)c2c(=O)cc(-c3ccc(O)cc3)oc2c1 [GENKWANIN]

- Drug metabolism [41]: metabolite_detected
SMILES: COc1cc(O)c2c(=O)c(O)c(-c3ccc(OC)c(O)c3)oc2c1 [OMBUINE]
